Where two headings read alike, the source gives them in different places.
Legend:
[1] = tested on: Key Broadleaf Weed and Crop Species; experiment: Post-Emergent Test II: postemergent herbicidal activity, visual rating after 14 d (Table 7); assay type: in vivo; settings: post-emergence, 336 h; for pest or weed control at 35 g/ha: 35 g ai/ha; for pest or weed control at 70 g/ha: 70 g ai/ha; for pest or weed control at 140 g/ha: 140 g ai/ha
Summary of the method: (§1)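 Greenhouse-grown plants at the first or second true leaf stage (7-21 d, ~15 h photoperiod, 23-29° C day) were sprayed with compound in acetone/DMSO-based aqueous spray containing crop oil concentrate and Triton X-155 at 187 L/ha. Injury versus untreated plants was rated visually after 14 d on a 0-100 scale.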

[2] = tested on: Key Grass and Sedge Weeds as well as Grass Crops; experiment: Post-Emergent Test II: postemergent herbicidal activity, visual rating after 14 d (Table 8); assay type: in vivo; settings: post-emergence, 336 h; for pest or weed control at 35 g/ha: 35 g ai/ha; for pest or weed control at 70 g/ha: 70 g ai/ha; for pest or weed control at 140 g/ha: 140 g ai/ha
Summary of the method: as §1

[3] = ABUTH: velvetleaf (Abutilon theophrasti), read-out: Visual Growth Reduction (%) 14 Days After Application ABUTH
[4] = AMARE: redroot pigweed (Amaranthus retroflexus), read-out: Visual Growth Reduction (%) 14 Days After Application AMARE
[5] = BRSNN: oilseed rape, canola (Brassica napus), read-out: Visual Growth Reduction (%) 14 Days After Application BRSNN
[6] = CHEAL: lambsquarters (Chenopodium album), read-out: Visual Growth Reduction (%) 14 Days After Application CHEAL
[7] = EPHHL: wild poinsettia (Euphorbia heterophylla), read-out: Visual Growth Reduction (%) 14 Days After Application EPHHL
[8] = HELAN: sunflower (Helianthus annuus), read-out: Visual Growth Reduction (%) 14 Days After Application HELAN
[9] = barnyardgrass (Echinochloa crus-galli), read-out: Visual Growth Reduction (%) 14 Days After Application, ECHCG
[10] = giant foxtail (Setaria faberi), read-out: Visual Growth Reduction (%) 14 Days After Application, SETFA
[11] = maize, corn (Zea mays), read-out: Visual Growth Reduction (%) 14 Days After Application, ZEAMX
[12] = rice (Oryza sativa), read-out: Visual Growth Reduction (%) 14 Days After Application, ORYSA
[13] = wheat, spring (Triticum aestivum), read-out: Visual Growth Reduction (%) 14 Days After Application, TRZAS
[14] = yellow nutsedge (Cyperus esculentus), read-out: Visual Growth Reduction (%) 14 Days After Application, CYPES

COC(=O)c1nc(-c2ccc3c(c2)OCC3)c(F)c(N)c1Cl [Compound 100, Methyl 4-amino-3-chloro-6-(2,3-dihydrobenzofuran-6-yl)-5-fluoropicolinate]
pest or weed control at 35 g/ha [1, 3]: 45 to 59% | pest or weed control at 70 g/ha [1, 3]: 85 to 94% | pest or weed control at 140 g/ha [1, 3]: 95 to 100% | pest or weed control at 35 g/ha [1, 4]: 75 to 84% | pest or weed control at 70 g/ha [1, 4]: 95 to 100% | pest or weed control at 140 g/ha [1, 4]: 95 to 100% | pest or weed control at 35 g/ha [1, 5]: 0 to 29% | pest or weed control at 70 g/ha [1, 5]: 0 to 29% | pest or weed control at 140 g/ha [1, 5]: 0 to 29% | pest or weed control at 35 g/ha [1, 6]: 95 to 100% | pest or weed control at 70 g/ha [1, 6]: 95 to 100% | pest or weed control at 140 g/ha [1, 6]: 95 to 100% | pest or weed control at 35 g/ha [1, 7]: 95 to 100% | pest or weed control at 70 g/ha [1, 7]: 95 to 100% | pest or weed control at 140 g/ha [1, 7]: 95 to 100% | pest or weed control at 35 g/ha [1, 8]: 60 to 74% | pest or weed control at 70 g/ha [1, 8]: 60 to 74% | pest or weed control at 140 g/ha [1, 8]: 75 to 84% | pest or weed control at 35 g/ha [2, 9]: 45 to 59% | pest or weed control at 70 g/ha [2, 9]: 75 to 84% | pest or weed control at 140 g/ha [2, 9]: 85 to 94% | pest or weed control at 35 g/ha [2, 10]: 0 to 29% | pest or weed control at 70 g/ha [2, 10]: 0 to 29% | pest or weed control at 140 g/ha [2, 10]: 0 to 29% | pest or weed control at 35 g/ha [2, 11]: 0 to 29% | pest or weed control at 70 g/ha [2, 11]: 95 to 100% | pest or weed control at 140 g/ha [2, 11]: 95 to 100% | pest or weed control at 35 g/ha [2, 12]: 0 to 29% | pest or weed control at 70 g/ha [2, 12]: 0 to 29% | pest or weed control at 140 g/ha [2, 12]: 0 to 29% | pest or weed control at 35 g/ha [2, 13]: 0 to 29% | pest or weed control at 70 g/ha [2, 13]: 0 to 29% | pest or weed control at 140 g/ha [2, 13]: 0 to 29% | pest or weed control at 35 g/ha [2, 14]: 0 to 29% | pest or weed control at 70 g/ha [2, 14]: 0 to 29% | pest or weed control at 140 g/ha [2, 14]: 0 to 29%
